Assay results reported in patent EP0942911B1, “BENZOPYRANOPYRROLE AND BENZOPYRANOPYRIDINE ALPHA-1 ADRENERGIC COMPOUNDS” (Abbott Laboratories, priority 1996, dated 1998).
Where a name gives a salt, the structure may show the parent alone.

Legend:
[1] = target: T1, α-1B adrenoreceptor (Rattus norvegicus, UniProt P15823); assay: cell-based; conditions: phenylephrine-induced contraction, Schild plot; for Kb: read-out: In Vitro Characterization (pA2) Rat Spleen (converted)
T1 construct: from tissue; host or cells: rat spleen
T1 sequence (P15823 1-515): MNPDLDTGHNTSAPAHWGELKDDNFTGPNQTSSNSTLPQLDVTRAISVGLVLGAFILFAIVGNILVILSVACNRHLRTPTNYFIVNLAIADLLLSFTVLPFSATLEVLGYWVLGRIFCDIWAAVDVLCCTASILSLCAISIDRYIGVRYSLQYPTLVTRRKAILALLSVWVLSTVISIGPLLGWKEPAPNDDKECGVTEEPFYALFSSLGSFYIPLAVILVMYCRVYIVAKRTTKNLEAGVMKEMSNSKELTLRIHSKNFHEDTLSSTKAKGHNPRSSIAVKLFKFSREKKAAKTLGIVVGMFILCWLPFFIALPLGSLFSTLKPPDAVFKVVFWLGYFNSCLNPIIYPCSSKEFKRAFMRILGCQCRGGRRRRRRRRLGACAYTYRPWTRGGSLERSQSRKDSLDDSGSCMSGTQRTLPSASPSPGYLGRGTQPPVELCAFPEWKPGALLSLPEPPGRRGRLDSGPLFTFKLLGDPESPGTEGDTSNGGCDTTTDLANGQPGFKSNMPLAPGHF
Outline: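 Phenylephrine dose-response curves for contraction were repeated against increasing test-agent concentrations. pA2 was derived by Schild plot [[…] vs log molarity of test agent].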

[2] = test system: α-1 Adrenoceptors; assay: Functional antagonism in rat aorta (method not described); format: cell-based
[3] = test system: α-1A adrenoreceptor; assay: Functional antagonism: inhibition of PE-induced contraction of canine prostate strips (Schild plot); format: cell-based; conditions: phenylephrine-induced contraction
Description: Canine prostate strips were used in vitro as previously described (Hieble, J.P., Boyce, A.J. and Caine, M., Fed. Proc., 45: 2609-2614 (1986)), to determine antagonist potencies against phenylephrine-induced contractions.
Functional assays indicative of pharmacologically defined α-1 adrenoreceptors were used to further characterize compounds. Inhibition of phenylephrine (PE)-induced contraction of canine prostate smooth muscle can be correlated with α-1A adrenoreceptor activation. […] For each of these models, agonist dose response curves were repeated against increasing concentrations of test agent to derive a Schild plot [log ([…]) against log (molarity of test agent)] to determine the pA2.

In Vitro Characterization (pA2) Rat Spleen [1]	Molecule	In Vitro Characterization (pA2) Rat Aorta [2]	Kb [1] [nM]	In Vitro Characterization (pA2) Dog Prostate [3]
7.83	3-[4-((3aR,9bR)-cis-9-Methoxy-1,2,3,3a,4,9b-hexahydro-[1]-benzopyrano[3,4-c]pyrrol-2-yl]butyl]-7-methoxy-pyrido[3',2':4,5]thieno[3,2-d]pyrimidine-2,4(1H,3H)-dione hydrochloride [Example 33]	9.15		
	COc1cccc2c1[C@@H]1CN(CCCCn3c(=O)[nH]c4c(sc5ncc(-c6ccccc6)nc54)c3=O)C[C@H]1CO2 [Example 50, 3-[4-((3aS,9bR)-trans-9-Methoxy-1,2,3,3a,4,9b-hexahydro-[1]-benzopyrano[3,4-c]pyrrol-2-yl)butyl]-8-phenyl-pyrazino[2',3':4,5]thieno[3,2-d]pyrimidine-2,4(1H,3H)-dione hydrochloride]		316	8.45
	COc1cccc2c1[C@@H]1CCN(CCCCn3c(=O)[nH]c4c(sc5cccnc54)c3=O)C[C@H]1CO2 [Example 95, 3-[4-((4aS,10bR)-trans-10-Methoxy-1,3,4,4a,5,10b-hexahydro-2H-[1]-benzopyrano[3,4-c]pyrido-3-yl)butyl]-pyrido[2',3':4,5]thieno[3,2-d]pyrimidine-2.4(1H,3H)-dione dihydrochloride]		19.1	8.58
	COc1cccc2c1[C@@H]1CCN(CCCCn3c(=O)[nH]c4c(sc5ncc(Cl)nc54)c3=O)C[C@H]1CO2 [Example 97, 3-[4-((4aS,10bR)-trans-10-Methoxy-1,3,4,4a,5,10b-hexahydro-2H-[1]-benzopyrano[3,4-c]pyrido-3-yl)butyl]-8-chloro-pyrazino[2',3':4,5]thieno[3,2-d]pyrimidine-2,4(1H,3H)-dione dihydrochloride]		17.4	8.6
